Data taken from patent US20230110998A1, “Compositions and Methods for Treatment of Cytokine Storm and Cytokine Release Syndrome” (Yinuoke Medicine Science Technology Company Ltd., priority 2020, published 2023).

Assays:
IL-6 = experiment: Serum IL-6 levels in LPS-induced CRS; format: in vivo, BALB/c mice; conditions: 50 µg LPS i.p.; 10 mg/kg single i.p. injection; serum 2 hours after challenge; versus PBS, p=0.0023
Method: 8-week-old male BALB/c mice were used for these studies. The mice were challenged with 50 µg LPS (Sigma Cat. No. L2630) dissolved in 0.1 mL PBS, a dosage designed to ensure all animals survived the challenge, via intraperitoneal injection. Mouse serum was collected 2 hours after the challenge, and IL-6 was measured with the Mouse Il-6 Flex Set (BD Biosciences Cat. No. 558301).
Within 2 minutes of the LPS injection, test compound ketorolac (racemic mixture) or control vehicle (PBS) was administered at 10 mg per kg body weight by single intraperitoneal injection. 5 mice were included per experimental group.

LPS-induced CRS [1] = experiment: Acute diarrhea caused by high-dose LPS-induced CRS; format: in vivo, BALB/c mice; conditions: LPS 15 mg/kg i.p.
Method: 8-10-week-old female BALB/c mice were used for these studies. The mice were challenged with LPS at 15 mg per kg body weight, a dosage which had been empirically determined to induce diarrhea in 100% of tested subjects, via intraperitoneal injection. The mice were monitored for diarrhea symptoms, with diarrhea defined by the presence of watery stools 6 hours after treatment. Within 2 minutes of the LPS injection, test compound ketorolac (racemic mixture, suspended in PBS) or control vehicle (PBS) was administered at 0.1 mg (corresponding to 5 mg/kg) by single intraperitoneal injection.

LPS-induced CRS [2] = experiment: Survival of mice with LPS-induced CRS; format: in vivo, BALB/c mice; conditions: 0.2 mg LPS i.p.
Method: 8-week-old female BALB/c mice were used for these studies. […] The mice were challenged with 0.2 mg LPS (Sigma Cat. No. L2630) dissolved in 0.1 mL PBS via intraperitoneal injection. The mice were monitored for health condition and survival for a minimum of seven days. […]

LPS-induced CRS [3] = experiment: Body weight loss caused by low-dose LPS-induced CRS; format: in vivo, BALB/c mice; conditions: 0.05 mg LPS i.p.; 0.3 mg (15 mg/kg) oral; next day; compared with aspirin, p=0.0267
Method: 8-week-old female BALB/c mice were used for these studies. The mice were challenged with 0.05 mg LPS (Sigma Cat. No. L2630) via intraperitoneal injection. Body weight was measured before LPS challenge and the next day after the challenge.
Within 2 minutes of LPS injection, test compound (R)-ketorolac (0.3 mg, corresponding to 15 mg/kg), aspirin (0.3 mg, corresponding to 15 mg/kg), or control vehicle (PBS) was orally administered.

COX1 = COX1 (Homo sapiens, UniProt P23219); conditions: no test described; cited from earlier work
COX1, sequence (P23219 24-599): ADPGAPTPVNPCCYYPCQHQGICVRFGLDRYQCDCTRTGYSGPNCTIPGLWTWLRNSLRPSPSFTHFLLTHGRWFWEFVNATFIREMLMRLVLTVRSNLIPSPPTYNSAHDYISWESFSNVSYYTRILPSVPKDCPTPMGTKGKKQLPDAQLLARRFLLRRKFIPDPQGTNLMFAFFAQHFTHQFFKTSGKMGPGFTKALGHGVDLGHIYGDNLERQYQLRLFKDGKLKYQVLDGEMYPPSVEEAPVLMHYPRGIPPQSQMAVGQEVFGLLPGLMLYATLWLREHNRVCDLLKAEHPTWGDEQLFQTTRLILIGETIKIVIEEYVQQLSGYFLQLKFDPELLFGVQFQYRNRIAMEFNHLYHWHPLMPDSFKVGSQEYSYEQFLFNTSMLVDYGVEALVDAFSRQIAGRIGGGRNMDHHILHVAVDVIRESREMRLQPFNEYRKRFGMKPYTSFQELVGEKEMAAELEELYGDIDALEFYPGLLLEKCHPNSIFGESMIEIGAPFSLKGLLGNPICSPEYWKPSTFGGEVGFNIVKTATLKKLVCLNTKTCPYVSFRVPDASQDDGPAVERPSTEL

COX2 = target: T1, COX2 (Homo sapiens, UniProt P35354); conditions: no test described; cited from earlier work
T1 sequence (P35354 18-604): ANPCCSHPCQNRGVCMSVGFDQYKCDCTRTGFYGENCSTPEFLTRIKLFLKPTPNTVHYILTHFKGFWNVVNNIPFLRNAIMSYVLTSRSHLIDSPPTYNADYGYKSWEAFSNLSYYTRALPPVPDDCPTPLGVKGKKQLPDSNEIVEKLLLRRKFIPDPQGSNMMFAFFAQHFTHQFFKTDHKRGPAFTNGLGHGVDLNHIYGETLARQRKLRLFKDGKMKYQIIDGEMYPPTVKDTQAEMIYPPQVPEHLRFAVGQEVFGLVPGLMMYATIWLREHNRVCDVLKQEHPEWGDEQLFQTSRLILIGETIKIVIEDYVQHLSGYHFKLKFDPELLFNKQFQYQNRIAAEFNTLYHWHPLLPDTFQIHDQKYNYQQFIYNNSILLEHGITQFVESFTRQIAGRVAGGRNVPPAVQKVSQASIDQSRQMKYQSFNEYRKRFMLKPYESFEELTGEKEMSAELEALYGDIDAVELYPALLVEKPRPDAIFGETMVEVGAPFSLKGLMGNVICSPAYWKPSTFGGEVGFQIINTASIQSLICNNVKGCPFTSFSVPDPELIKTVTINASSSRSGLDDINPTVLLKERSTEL

[4] = tested on: C26 tumor cell-induced cytokine storm; experiment: Tumor-induced cytokine storm model, serum cytokines (Mouse-Cytokine-32-Plex assay); conditions: gavage 0.2 mg daily for six days, serum on day 7, compared to PBS controls
Method: Cytokine storm inducing C26 tumor cells were cultured in Advanced RPMI 1640 medium supplied with 5% fetal bovine serum and 1% penicillin/streptomycin and maintained in a 5% CO2, 37° C. humidified incubator. Tumor cells with viability of >90% were chosen for the study. Viable tumor cells (1 × 10^6 cells) were re-suspended in 100 µL of PBS and subcutaneously injected into the left flank of mice. All procedures were performed in laminar flow hood following sterile techniques.
6-8 week BALB/c male and female mice were used for these studies. Following tumor inoculation, the animals were returned to the cage. The mice were monitored for the appearance of palpable tumor and cytokine storm development by observing health condition change and testing serum cytokines with Mouse-Cytokine-32-Plex assay.
2-4 mice were included in each experimental group. On day 7, mouse blood samples were collected and allowed to clot for one hour at room temperature. The samples were then centrifuged for 15 min at 3,000 rpm (1500 × g) at 4° C. Thirty microliters of serum per treatment animal were assessed for cytokine profiles using a Mouse-Cytokine-32-Plex assay (Eve Technologies Corporation, Calgary, AB, Canada).

| Compound | serum IL-6 levels (IL-6) | decrease of acute diarrhea occurrence (LPS-induced CRS [1]; 0.1 mg (5 mg/kg) i.p., versus control) [%] | diarrhea present, % of mice (LPS-induced CRS [1]; 0.1 mg (5 mg/kg) single i.p. injection, watery stools 6 hours after treatment, n=8, control 87.5%) [%] | survival rate (LPS-induced CRS [2]; 10 mg/kg single dose, surviving mice / n=6) | survival rate (LPS-induced CRS [2]; 10 mg/kg, control 33.3%) [%] | increase in survival rate (LPS-induced CRS [2]; 10 mg/kg, versus PBS control) [%] | body weight loss (LPS-induced CRS [3]) | activity against COX1 (COX1) | activity against COX2 (COX2) | serum concentration of G-CSF [4] | serum concentration of GM-CSF [4] | serum concentration of IL-1β [4] | serum concentration of IL-6 [4] | serum concentration of IL-7 [4] | serum concentration of IL-10 [4] | serum concentration of LIF [4] | serum concentration of MCP-1 [4] | serum concentration of MIP-1A [4] | serum concentration of TNF-α [4] |
| --- | --- | --- | --- | --- | --- | --- | --- | --- | --- | --- | --- | --- | --- | --- | --- | --- | --- | --- | --- |
| O=C(c1ccccc1)c1ccc2n1CCC2C(=O)O (racemic) [ketorolac] | decreased serum IL-6 levels | 65 | 12.5 | – | – | – | – | – | – | – | – | – | – | – | – | – | – | – | – |
| O=C(c1ccccc1)c1ccc2n1CC[C@H]2C(=O)O [(R)-ketorolac] | – | – | – | ⅚ | 83.3 | 50 | significantly reduced body weight loss | not active | not active | effective in reducing | effective in reducing | effective in reducing | effective in reducing | effective in reducing | effective in reducing | effective in reducing | effective in reducing | effective in reducing | effective in reducing |
